Experimental findings from patent US4434175A, “Nonsteroidal compounds as anti-inflammatory and analgesic agents” (Merck & Co., Inc., priority 1982, dated 1984) are described below.

Series [1] deals with edema induced by carragenin in rat's right hind paw. The experiment in a line: rat foot edema assay (carragenin-induced, C.F.E.). The format is in vivo, rat (male, Sprague Dawley). The protocol: The rat foot edema assay, by which anti-inflammatory activity is determined, is based on the ability of the compounds of Formula I to inhibit the edema induced by injection of an inflammatory (phlogistic) agent into the tissue of a rat's foot. Groups of six male rats (Sprague Dawley strain, 150±30 g each) are given orally the compounds to be tested one hour before 0.1 ml of 1% suspension of carragenin in methocel (0.5%) is injected into the plantar surface of the rat's right hind paw. Immediately and again three hours later, the foot volume is measured and recorded. The difference between the […] and final volumes is a measurement of the edema produced. For comparative purposes the activity of the compound to be tested is measured against that produced by the known anti-inflammatory agent, e.g. Zomepirac. The activity measured is also corrected by the swelling, if any, produced by the "control" rats which receive only the methocel solution.

Series [2] deals with gastric mucosa. Put plainly: Gastric Hemorrhage Lesion Formation Assay (GHLF) / gastric irritation. The format is in vivo, rat (Sprague-Dawley, male). To be noted: for Ave. No. of lesions per Animal / Animal with Lesion: oral, fasted, 4 h; for Animal with Lesion: animals with at least one lesion/group. The protocol:
In other words, the novel compounds of the present invention are less toxic in terms of gastric irritation. The GHLF test is conducted according to the following procedure:
Rats (Sprague-Dawley, Males, 120-180 gm) were fasted overnight and dosed orally with drug suspended in 0.5% methylcellulose. The drug concentration was adjusted so that each animal received 1.0 ml/100 gm body weight. Four hours later the animals were killed by asphixiation in carbon dioxide, the stomachs removed, cut open and everted. The mucosal lining was washed and examined under 3X magnification. The lesions are indentified as perforations of the gastric mucosa many of which perforate right through the wall of the stomach.
The results are expressed in two ways, the average number of lesions per stomach, and the number of animals in the group showing at least one lesion.

[3] abbreviates: Rattus norvegicus, oral, one hour before carragenin, foot volume 3 h later.

The structures appear in SMILES notation.

The term inhibition in vivo denotes the drop in the measured response relative to a control, in per cent. Low values mean a response near the control, high ones a response far below the control.

In series [1] (setting [3]), `CSc1cc(C(=O)c2c(C)cc(CC(=O)O)n2C)n(C)c1` came in with an inhibition in vivo at 10 mg/kg of 33% and an inhibition in vivo at 30 mg/kg of 53%.

Consider `COc1cc(CC(=O)O)n(C)c1C(=O)c1ccc(C(F)(F)F)cc1` [4-CF3C6 H5; OCH3; CH3, 5-(p-trifluoromethylbenzoyl)-4-methoxy-1-methylpyrrole-2-acetic acid], for which, in series [2] (10 mg/kg), the “Ave. No. of lesions per Animal” value came to 0 and the “Animal with Lesion” value is listed as 0/6. Besides, in series [2] (30 mg/kg), the “Ave. No. of lesions per Animal” value was determined as 0 and the “Animal with Lesion” value is recorded as 0/6. For the same molecule, in series [2] (90 mg/kg), the “Ave. No. of lesions per Animal” value is reported as 0 and the “Animal with Lesion” value is 0/6. In addition, in series [2] (150 mg/kg), the “Ave. No. of lesions per Animal” value is 1 and the “Animal with Lesion” value is 1/6. In series [1] (setting [3]), this molecule had an inhibition in vivo at 3 mg/kg of 24%, an inhibition in vivo at 10 mg/kg of 48% and an inhibition in vivo at 20 mg/kg of 57%.

`COc1cc(CC(=O)O)n(C)c1C(=O)c1ccc(Cl)cc1` [4-ClC6 H5; CH3 O; CH3, 5-(p-chlorobenzoyl)-4-methoxy-1-methylpyrrole-2-acetic acid]: in series [2] (10 mg/kg), the “Ave. No. of lesions per Animal” value was determined as 0 and the “Animal with Lesion” value is given as 0/5. Besides, in series [2] (30 mg/kg), the “Ave. No. of lesions per Animal” value came to 0 and the “Animal with Lesion” value was 0/5. In addition, in series [2] (90 mg/kg), the “Ave. No. of lesions per Animal” value is given as 2 and the “Animal with Lesion” value is recorded as 3/5. Also, in series [1] (setting [3]), 3 mg/kg produced 48% inhibition in vivo, the inhibition in vivo at 10 mg/kg was 51%, the inhibition in vivo at 20 mg/kg worked out at 60% and the inhibition in vivo at 30 mg/kg came out at 70%.

In series [1] (setting [3]), `Cc1cc(CC(=O)O)n(C)c1C(=O)c1ccc(Cl)n1C` had an inhibition in vivo at 10 mg/kg of 30% and an inhibition in vivo at 30 mg/kg of 41%.

As to `Cc1cc(CC(=O)O)n(C)c1C(=O)c1ccc(Cl)cc1` [Zomepirac, reference compound], the “Ave. No. of lesions per Animal” value in series [2] (3 mg/kg) turned out to be 0.5; in series [2] (6 mg/kg), 1.4; in series [2] (9 mg/kg), 1.4. In addition, the “Animal with Lesion” value in series [2] (3 mg/kg) was 4/6; in series [2] (6 mg/kg), 3/6; in series [2] (9 mg/kg), 6/6.

In series [1] (setting [3]), `Cc1cc(CC(=O)O)n(C)c1C(=O)c1cccnc1` [drawing 19] displayed an inhibition in vivo at 3 mg/kg of 34%, an inhibition in vivo at 10 mg/kg of 47% and an inhibition in vivo at 30 mg/kg of 33%.

`CSc1ccc(C(=O)c2c(C)cc(CC(=O)OCCNC(C)=O)n2C)n1C` [Acetamidoethyl 1,4-dimethyl-5-(1-methyl-5-methylthiopyrrol-2-oyl)pyrrole-2-acetate]: the “Ave. No. of lesions per Animal” value turned out to be 0 in series [2] (10 mg/kg), 0 in series [2] (30 mg/kg) and 0.5 in series [2] (90 mg/kg). For the same molecule, the figures for the “Animal with Lesion” value in series [2] (10 mg/kg), in series [2] (30 mg/kg) and in series [2] (90 mg/kg) were 0/6, 0/6 and 2/6, respectively. The “activity, footnote to GHLF table” value in series [2] (footnote to GHLF table) is listed as “also active”. For the same molecule, in series [1] (setting [3]), the inhibition in vivo at 10 mg/kg came to 13%. This molecule also yielded an inhibition in vivo at 30 mg/kg in series [1] (setting [3]) of 21%. The “activity in rat foot edema assay” value in series [1] (footnote to edema table) is “also active”.

As to `Cc1cc(CC(=O)O)n(C)c1C(=O)c1cccn1C`, in series [1] (setting [3]), the inhibition in vivo at 30 mg/kg is 26%.

`CCOc1cc(CC(=O)O)n(C)c1C(=O)c1ccc(Cl)cc1` [4-ClC6 H5; OC2 H5; CH3, 4-ethoxy-5-(p-chlorobenzoyl)-1-methylpyrrole-2-acetic acid]: 20 mg/kg produced 33% inhibition in vivo in series [1] (setting [3]).

In series [1] (setting [3]), `COc1cc(CC(=O)O)n(C)c1C(=O)c1ccc([S+](C)[O-])cc1` (stereo not shown) [4-CH3 SOC6 H5; CH3 O; CH3, 4-methoxy-5-(p-methylsulfinylbenzoyl)-1-methylpyrrole-2-acetic acid] yielded an inhibition in vivo at 10 mg/kg of 29% and an inhibition in vivo at 30 mg/kg of 23%.

On to `CSc1ccc(C(=O)c2c(C)cc(CC(=O)O)n2C)n1C` [drawing 18], for which, in series [1] (setting [3]), the inhibition in vivo at 10 mg/kg was found to be 34% and 30 mg/kg produced 45% inhibition in vivo.

`COc1cc(CC(=O)O)n(C)c1C(=O)c1ccc(Cl)n1C`: in series [1] (setting [3]), the inhibition in vivo at 3 mg/kg came out at 30%, the inhibition in vivo at 10 mg/kg came out at 35% and at 30 mg/kg the inhibition in vivo was 41%.

For the molecule `C=C(Cl)COc1cc(CC(=O)O)n(C)c1C(=O)c1ccc(Cl)cc1` [4-ClC6 H5; drawing 13; CH3], in series [1] (setting [3]), the inhibition in vivo at 3 mg/kg was 30% and the inhibition in vivo at 20 mg/kg came out at 32%.

For the molecule `COc1cc(CC(=O)O)n(C)c1C(=O)c1ccc(SC)cc1` [4-CH3 SC6 H5; CH3 O; CH3, 5-(p-methylthiobenzoyl)-4-methoxy-1-methylpyrrole-2-acetic acid], in series [2] (10 mg/kg), the “Ave. No. of lesions per Animal” value was determined as 0.5 and the “Animal with Lesion” value is reported as 3/6. Moreover, in series [2] (30 mg/kg), the “Ave. No. of lesions per Animal” value is recorded as 0.8 and the “Animal with Lesion” value was 2/6. Besides, in series [1] (setting [3]), at 3 mg/kg the inhibition in vivo was 45%. In series [1] (Rattus norvegicus, 15 mg/kg, oral, one hour before carragenin, foot volume 3 h later), this molecule returned an inhibition in vivo at 15 mg/kg of 64%.

On to `COc1cc(CC(=O)O)n(C)c1C(=O)c1ccc(C)cc1` [4-CH3C6 H5; OCH3; CH3, 5-(p-methylbenzoyl)-4-methoxy-1-methylpyrrole-2-acetic acid], for which the “Ave. No. of lesions per Animal” value in series [2] (10 mg/kg), in series [2] (30 mg/kg) and in series [2] (90 mg/kg) was 0 throughout. Further, the “Animal with Lesion” value in series [2] (10 mg/kg), in series [2] (30 mg/kg) and in series [2] (90 mg/kg) was 0/6 each time. The same molecule displayed an inhibition in vivo at 5 mg/kg in series [1] (Rattus norvegicus, 5 mg/kg, oral, one hour before carragenin, foot volume 3 h later) of 38%. Further, the inhibition in vivo at 20 mg/kg in series [1] (setting [3]) came out at 38%.

As to `Cc1cc(CC(=O)O)n(C)c1C(=O)c1ccccn1`, in series [2] (90 mg/kg), the “Ave. No. of lesions per Animal” value came to 0 and the “Animal with Lesion” value is reported as 0/6.

For the molecule `Cc1cc(CC(=O)O)n(C)c1C(=O)c1cccnc1` [drawing 23], in series [2] (90 mg/kg), the “Ave. No. of lesions per Animal” value was found to be 0 and the “Animal with Lesion” value is recorded as 0/6.

Regarding `CSc1ccc(C(=O)c2c(C)cc(CC(=O)O)n2C)n1C` [drawing 24], the “Ave. No. of lesions per Animal” value in series [2] (10 mg/kg) was 0; in series [2] (30 mg/kg), 0; in series [2] (60 mg/kg), 1.5. For the same molecule, the “Animal with Lesion” value in series [2] (10 mg/kg) is 0/6; in series [2] (30 mg/kg), 0/6; in series [2] (60 mg/kg), 4/6.

`COc1cc(CC(=O)O)n(C)c1C(=O)c1ccc(F)cc1F` [2,4-F2C6 H5; OCH3; CH3, 5-(o-p-difluorobenzoyl)-4-methoxy-1-methylpyrrole-2-acetic acid]: in series [1] (setting [3]), at 3 mg/kg the inhibition in vivo was 29%, the inhibition in vivo at 10 mg/kg came out at 35% and the inhibition in vivo at 30 mg/kg worked out at 38%.
